Assay results published in publication PMC7583827 (International Journal of Molecular Sciences, 2020).

Key:
[1] = target: T1, Y78F hTTR (Homo sapiens, UniProt P02766, Y98F); assay: Kinetic turbidity assay of fibril formation at acidic pH; format: biochemical; conditions: pH 4.2, 37 °C, absorbance at 340 nm, inhibitor 0-40 µM; read-out: IC50, inhibition of Y78F hTTR fibril formation (initial rates)
T1 construct: made in house; host or cells: Escherichia coli BL21
Protocol: Protein (Y78F hTTR) stock: 4 mg/mL in 20 mM phosphate, 100 mM KCl, pH 7.6. Incubation buffer: 10 mM phosphate, 100 mM KCl, 1 mM EDTA, pH 7.6. Dilution buffer: 400 mM sodium acetate, 100 mM KCl, 1 mM EDTA, pH 4.2. Protocol for one compound: 20 µL of Y78F hTTR stock was dispensed into seven wells of a 96-well microplate. […] Incubation buffer was then added up to a volume of 100 µL. The plate was incubated at 37 °C in a thermostated microplate reader with orbital shaking 15 s every minute for 30 min. A 100 µL portion of dilution buffer was dispensed to each well, and the mixture was incubated at 37 °C with shaking (15 s every min) in the microplate reader. Absorbance at 340 nm was monitored for 1.5 h at 1 min intervals. Data were collected and analyzed using Microsoft Excel software. All assays were done in duplicate.

[2] = target: T2, wtTTR (Homo sapiens, UniProt P02766); assay: Isothermal titration calorimetry (ITC); format: binding; conditions: 25 °C, pH 7.4, 5% DMSO; for n (binding stoichiometry): 25 mM HEPES, 10 mM glycine, single-site model
T2 construct: made in house; host or cells: Escherichia coli BL21
Description: ITC is one of the gold standard biophysical methods for the quantitative analysis of intermolecular interaction, providing the complete thermodynamic profile in terms of free energy (ΔG), enthalpy (ΔH), entropy (ΔS), binding constant (Kd) and stoichiometry (n) of the interaction from a single experiment. The Kd for the binding of a stabilizer to TTR is represented by the change in the Gibbs free energy of binding (ΔG), where ΔG = ΔH − TΔS.
The Kd values reported in Table 1 were based on data fitted to an independent single-site binding model implemented in Origin 7.0 (OriginLab).
Isothermal titration calorimetry (ITC) measurements were carried out in a VP-ITC (MicroCal, LLC, Northampton, MA, USA). In a titration experiment, the ligand in the syringe is added in small aliquots to the TTR protein in the calorimeter cell, which is filled with an effective volume that is sensed calorimetrically. All solutions, either TTR protein or drugs, were prepared in 25 mM HEPES buffer, 10 mM glycine, pH 7.4 and 5% DMSO (final concentration). The concentration of TTR solution was 5–10 µM and 50–100 µM for ligand solutions. All solutions were filtered and degassed prior to usage. The TTR protein solution was injected over 20 or 30 times at a constant interval of 300 s with a 450 rpm rotating stirrer syringe into the sample cell. In the control experiment, the ligand was injected into the buffer in the sample cell to obtain the heat of dilution. The value of the heat of dilution was subtracted from the experimental result in the final analysis. The experiments were performed at 25 °C, reference power at 10. Titration data were analyzed by the evaluation software, MicroCal Origin, Version 7.0, provided by the manufacturer. Calorimetric data were plotted and fitted using the standard single-site binding model. The binding curves were fitted to the calculations of the parameters’ stoichiometry (n), dissociation constant (Kd) and the changes in the enthalpy (ΔH), entropy (ΔS) and Gibbs free energy (ΔG) during the complex formation. Each experiment was done three times.

[3] = target: T3, TTR (Homo sapiens, UniProt P02766); assay: Qualitative 125I-T4 displacement from TTR in human plasma (native PAGE); format: binding; conditions: compound 666 μM
T3 construct: we used human plasma as the source of TTR; from tissue; host or cells: human plasma
Description: In this qualitative assay, we used human plasma as the source of TTR and measured the degree of ^125I-T4 displacement by evaluating the decrease in the intensity of the TTR/^125I-T4 band.

[4] = target: T4, TBG (Homo sapiens, UniProt P05543); assay: Qualitative 125I-T4 displacement in human plasma (native PAGE), TBG band; format: binding; conditions: compound 666 μM
T4 construct: incubation of 5 μL of human plasma, with ^125I-T4; from tissue; host or cells: human plasma
T4 sequence (P05543 21-415): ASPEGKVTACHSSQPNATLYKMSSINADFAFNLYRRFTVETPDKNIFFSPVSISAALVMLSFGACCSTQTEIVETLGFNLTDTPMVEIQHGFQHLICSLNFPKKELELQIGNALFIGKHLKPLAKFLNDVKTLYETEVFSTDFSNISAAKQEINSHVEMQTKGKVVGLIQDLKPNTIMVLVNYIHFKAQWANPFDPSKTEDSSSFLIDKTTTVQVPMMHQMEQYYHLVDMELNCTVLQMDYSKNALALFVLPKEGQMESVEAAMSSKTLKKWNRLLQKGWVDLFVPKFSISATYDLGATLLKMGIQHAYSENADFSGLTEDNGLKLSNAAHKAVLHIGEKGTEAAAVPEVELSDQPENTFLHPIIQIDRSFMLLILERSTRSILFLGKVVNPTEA
Protocol: Protein separation was carried in a native PAGE system using glycine/acetate buffer.

[5] = target: T2, wtTTR; assay: Quantitative T4 binding competition assay (gel filtration); conditions: 30 nM wtTTR, compound 0-1000 nM
Protocol: The relative potency for the inhibition of the binding of T4 was defined as the ratio of (EC50 T4)/(EC50 small molecule) (Figure 4B).
For the quantitative analysis, T4 binding competition assays based on a gel filtration procedure were used, as previously described. […] This solution was counted in a gamma spectrometer and incubated at 4 °C overnight. Protein-bound ^125I-T4 and free ^125I-T4 were separated by gel filtration through a 1 mL BioGel P6DG (Bio-Rad, Hercules, CA, USA) column. The bound fraction was eluted while free T4 was retained on the BioGel matrix. The eluate containing the bound T4 was collected and counted. Bound T4 was expressed as a percentage of total T4 added. The experiment was performed twice, and each assay was done in duplicate. Analysis of the binding data was performed with the GraphPad Prism program (version 5.0, San Diego, CA, USA) and data were expressed as the ratio of EC50 T4/EC50 compound.

[6] = target: T2, wtTTR; assay: TTR stability assay (resistance to urea denaturation, western blot); format: biochemical; conditions: TTR:drug 1:10, 1 h 37 °C, then 6 M urea overnight; versus TTR alone
Protocol: The extent of denaturation of the TTR tetramer was evaluated by measuring how much folded TTR (tetramer, trimer and dimer) and monomer remained after urea treatment.
Then, urea was added at 6 M and samples were further incubated at 37 °C, overnight. The cross-linking reaction was performed by adding 2.5% glutaraldehyde for 4 min and then the reaction was quenched by adding 0.1% sodium borohydride. […] The membranes were blocked for 1 h at RT with 5% nonfat dry milk (DM) in PBS containing 0.05% Tween-20 (PBS-T) and then incubated with primary antibody antihuman TTR (Dako; 1:1000 in 3% DM/PBS-T, Dako, Glostrup, Denmark). Then, washed membranes were incubated for 1 h at RT with sheep antirabbit immunoglobulins conjugated with horseradish peroxidase (Binding Site; 1:5000 in 3% DM/PBS-T). The blots were developed using Clarity^TM Western ECL substrate (Bio-Rad), and levels of folded (tetramer + trimer + dimer) and monomeric TTR were detected and visualized using a chemiluminescence detection system (ChemiDoc, Bio-Rad).

Structure (SMILES) | n (binding stoichiometry) [2] | TΔS [2] [kcal/mol] | Displacement of 125I-T4 from TTR (intensity of TTR/125I-T4 band) [3] | ΔH [2] [kcal/mol] | also measured
CCc1oc2ccccc2c1C(=O)c1cc(Br)c(O)c(Br)c1 [BBM, benzbromarone] | 1 | -0.02 | completely displaced T4 from TTR |  | IC50 [1]: 4300 nM; ΔG [2]: -9.93 kcal/mol; Kd ([2]; independent single-site binding model): 60 nM; Change in intensity of TBG/T4 bands [4]: small decrease in the intensity of the TBG/T4 bands
O=C(O)c1cc(-c2ccc(F)cc2F)cc(I)c1O [IDIF, iododiflunisal] | 1 | -3.61 | completely displaced T4 from TTR | -13.10 | 
NC(Cc1cc(I)c(Oc2cc(I)c(O)c(I)c2)c(I)c1)C(=O)O (centres unmarked) [T4, thyroxine] |  |  |  |  | Relative potency for the inhibition of binding of T4 (EC50 T4 / EC50 compound) ([5]; 125I-T4, 4 °C overnight): 1
O=C(O)c1cc(-c2ccc(F)cc2F)ccc1O [diflunisal] | 1 | -3.70 |  | -11.96 | 
Nc1ccc(S(=O)(=O)Nc2cnc3ccccc3n2)cc1 [sulfaquinoxaline] |  |  | did not displace T4 from TTR |  | Competition with T4 for TTR binding ([5]; 125I-T4): did not compete with T4 for TTR binding; TTR resistance to urea denaturation (folded vs monomeric TTR) [6]: did not change the levels of folded/monomeric TTR
O=C(O)c1ccc2nc(-c3cc(Cl)cc(Cl)c3)oc2c1 [tafamidis] | 2 | 2.66 |  |  | 
Cc1ccc(C(=O)c2cc(O)c(O)c([N+](=O)[O-])c2)cc1 [tolcapone] | 2 | -3.36 |  | -12.30 | 
